Publication PMC6332173, “Diterpenoids from Saliva plebeia R. Br. and Their Antioxidant and Anti-Inflammatory Activities” (Molecules, 2015)

Columns and labels:
[1] = system: intracellular ROS production in LPS-stimulated RAW 264.7 macrophages; assay: Intracellular ROS assay in LPS-stimulated RAW 264.7 macrophages (DCFH-DA); format: cell-based, murine; settings: Mus musculus, RAW264.7, LPS 1 μg/mL, 6 h, mean ± SD, n=3, read-out: Intracellular ROS Inhibition Rate (%)
Experimental: Intracellular ROS assay: Intracellular ROS assay was performed according to the method reported previously. RAW 264.7, a murine macrophage cell line, was obtained from the Pharmacognosy Laboratory of Prof. Mian Zhang, China Pharmaceutical University. Cells were cultured in DMEM containing 10% fetal bovine serum, 100 U/mL penicillin and 100 U/mL streptomycin at 37 °C in a humidified atmosphere containing 5% CO2 and 95% air. The cells (1 × 10^5 cells/well) were pre-incubated in the 96-well plate for 12 h. Then, cells were cultured in normal medium as normal group, or 1 μg/mL LPS as control group, or 1 μg/mL LPS plus different concentration of compounds as test group. After the cells of each group were treated for 6 h, the medium was removed, and the cells were incubated with 50 μL 2,7-Dichlorofluorescein diacetate (DCFH-DA) (10 μM) for 20 min at 37 °C. After that, the cells were washed with PBS carefully three times to remove free DCFH-DA. The absorbance was determined at 525 nm using Thermo Scientific Varioskan Flash. Apocynin was used as the positive control. The inhibitory rate (%) was calculated according to the equation: Inhibition rate (%) = [1 − (B1 − B0)/(B2 − B0)] × 100 (2) B1 refers to the absorbance of […], B0 refers to the absorbance of normal group.

RAW 264.7 macrophages = format: cell-based, murine; settings: mouse, 24 h, 100 µM
Experimental: The MTT assay was used to evaluate the cell viability, as previously reported. RAW 264.7 macrophages were seeded at a density of 1 × 10^5 cells /mL in 96-well plates and cultured for 24 h with the test compound (100 µM) at 37 °C in a 5% CO2 incubator. Subsequently, 20 μL of MTT solution (5 mg/mL) was added to each well and incubated for 4 h at 37 °C and the resulted crystals were dissolved in DMSO. The optical density was measured at 490 nm using Thermo Scientific Varioskan Flash.

[2] = system: NO production in LPS-stimulated RAW 264.7 macrophages; assay: NO production in LPS-stimulated RAW 264.7 macrophages (Griess reaction); format: cell-based, murine; settings: Mus musculus, RAW264.7; for inhibition at 3 µM / inhibition at 10 µM / inhibition at 30 µM / inhibition at 100 µM: LPS 1 μg/mL, 24 h, mean ± SD, n=3, read-out: NO Inhibition Rate (%); for IC50: LPS-induced RAW 264.7 macrophages, read-out: IC50 of NO production inhibition
[3] = DPPH radical scavenging assay; settings: for DPPH radical scavenging rate: 30 min, absorbance 517 nm
Experimental: DPPH radical assay: DPPH radical scavenging assay was performed according to previous protocol with modifications. DPPH was dissolved in ethanol at the concentration of 200 µM. One hundred microliters of compounds (5, 10, 20, 30, 50 µM) were added to the 96-well plates, and evaded the light preservation for 30 min after addition 100 µL DPPH. Then the absorbance was measured at 517 nm using Thermo Scientific Varioskan Flash. Vitamin C was used as the positive control. The inhibitory effect was expressed as scavenging rate of alleviation and was calculated as follows: Scavenging rate (%) = [1 − (A1 − A2)/A0] × 100 (1) A1 refers to the absorbance with various concentrations of test compounds and DPPH, A2 refers to the absorbance with various concentrations of test compounds and ethanol, A0 refers to the absorbance with distilled water and DPPH.

Row | Compound | melting point [°C] | IC50 [2] [µM] | IC50 [3] [µM] | inhibition at 100 µM [1] [%] | Cell Viability (% vs. Control) (RAW 264.7 macrophages) [%] | inhibition at 3 µM [2] [%] | inhibition at 10 µM [2] [%] | inhibition at 30 µM [2] [%] | inhibition at 100 µM [2] [%] | DPPH radical scavenging rate ([3]; 5 µM compound) [%] | DPPH radical scavenging rate ([3]; 10 µM compound) [%] | DPPH radical scavenging rate ([3]; 20 µM compound) [%] | DPPH radical scavenging rate ([3]; 30 µM compound) [%] | DPPH radical scavenging rate ([3]; 50 µM compound) [%] | inhibition at 10 µM [1] [%] | inhibition at 30 µM [1] [%]
1 | COc1cc(C(C)=O)ccc1O [Apocynin, reference compound] | – | – | – | 92.9 ± 2.6 | – | – | – | – | – | – | – | – | – | – | – | –
2 | CC(C)c1cc(O)c2c(c1O)[C@@H]1CC3C(C)(C)CCC[C@]23C(=O)O1 (stereo partly drawn) [Compound 3, isocarnosol] | – | 23.6 | > 50 | 22 ± 1.8 | 106.7 ± 1.5 | 18.8 ± 3 | 29.9 ± 5 | 59.4 ± 4.7 | 98.1 ± 6.5 | 3.4 ± 2.3 | 11.5 ± 2.4 | 24.5 ± 1.2 | 42.6 ± 6.0 | 49.0 ± 1.1 | 13.5 ± 1.1 | 16 ± 1.9
3 | CC(C)c1cc2c(c(O)c1O)[C@]13CO[C@H]2C[C@H]1C(C)(C)C[C@H](O)C3 [Compound 5, 2,11,12-trihydroxy-7,20-epoxy-8,11,13-abietatriene] | – | > 100 | 20 | 91.3 ± 9.2 | 91.6 ± 2.3 | 5.7 ± 3.8 | 4.9 ± 7.3 | 16.4 ± 5.4 | 25.6 ± 4 | 9.2 ± 5.8 | 23.8 ± 6.6 | 55.4 ± 2.7 | 72.6 ± 5.7 | 89.6 ± 1.3 | 13 ± 3.3 | 51.8 ± 2.2
4 | CC(C)Cc1ccc(C(C)C(=O)O)cc1 (stereo not drawn) [ibuprofen, reference compound] | – | – | – | – | – | – | – | 32.3 ± 4.2 | – | – | – | – | – | – | – | –

Now from value to molecule, other results behind:

Row | melting point [°C] | IC50 [2] [µM] | IC50 [3] [µM] | Compound | inhibition at 100 µM [1] [%] | Cell Viability (% vs. Control) (RAW 264.7 macrophages) [%] | inhibition at 3 µM [2] [%] | inhibition at 10 µM [2] [%] | inhibition at 30 µM [2] [%] | inhibition at 100 µM [2] [%] | DPPH radical scavenging rate ([3]; 5 µM compound) [%] | DPPH radical scavenging rate ([3]; 10 µM compound) [%] | DPPH radical scavenging rate ([3]; 20 µM compound) [%] | DPPH radical scavenging rate ([3]; 30 µM compound) [%] | DPPH radical scavenging rate ([3]; 50 µM compound) [%] | inhibition at 10 µM [1] [%] | inhibition at 30 µM [1] [%]
5 | 232 to 233 | 18 | 29.6 | CC(C)C1CC2C(CO)(CC(O)C(O)C2(C)C)c2c(O)cc(O)cc21 [Compound 1, 1,2,3,4,4α,9,10,10α-octahydro-(4α-hydroxyymethyl)-1,1-dimethyl-9-(1-methylethyl)-(2S,3S,4αR,9R,10αS)-2,3,5,7-phenanthrenetertrol] | 64.8 ± 5.2 | 97.3 ± 4.2 | 18 ± 3.2 | 42.9 ± 2.5 | 68.9 ± 5.2 | 86.6 ± 4.9 | 16.6 ± 3.3 | 21.0 ± 1.8 | 39.2 ± 4.1 | 53.4 ± 8.2 | 75.4 ± 6.8 | 24.6 ± 2.4 | 56.1 ± 8.2
6 | – | 21.5 | 28.8 | CC(C)c1cc2c(c(O)c1O)[C@@]13CCCC(C)(C)[C@@H]1C[C@@H]2OC3=O [Compound 2, carnosol] | 80.3 ± 1.3 | 110.5 ± 0.9 | 20.5 ± 2.6 | 32 ± 4.8 | 63.3 ± 5.3 | 103 ± 5.9 | 5.9 ± 1.6 | 15.4 ± 2.6 | 29.5 ± 1.9 | 59.3 ± 4.2 | 86.1 ± 3.3 | 29.5 ± 3.1 | 53.2 ± 2
7 | – | > 100 | > 50 | CC(C)c1cc(C=O)c2c(c1O)OC(=O)C1C(C)(C)CCC[C@]21C=O (stereo partly drawn) [Compound 4, saficinolide] | 47.1 ± 6.1 | 101.3 ± 5.0 | 6.3 ± 2.4 | 11.9 ± 5.8 | 15.8 ± 4.4 | 28.7 ± 5.3 | 14.5 ± 2.9 | 15.2 ± 6.0 | 15.5 ± 1.3 | 7.0 ± 4.7 | 13.2 ± 1.5 | 8.1 ± 3.2 | 16.6 ± 4.4
8 | – | – | 26.5 | O=C1O[C@H]([C@@H](O)CO)C(O)=C1O [Vit. C, Vitamin C, reference compound] | – | – | – | – | – | – | 6.1 ± 4.4 | 21.6 ± 2.2 | 43.8 ± 2.6 | 57.6 ± 5.4 | 89.1 ± 2.2 | – | –
